# Values quoted from earlier work, collected in patent US6511683B1, “Enchinacea supplement and method of manufacture” (Factors R & D Technologies Ltd., priority 1999, dated 2003).
# Experiments:
# [1] = test system: granulocytes; settings: Awang et al.
# [2] = test system: immune system; settings: Awang et al.
smiles,measurement,setting,value
"O=C(/C=C/c1ccc(O)c(O)c1)O[C@@H](C(=O)O)[C@@H](OC(=O)/C=C/c1ccc(O)c(O)c1)C(=O)O [cichoric acid, 2,3-o-di-caffeoyl-tartaric acid]",phagocytosis in granulocytes,[1],increase
same,concentration that may stimulate the immune system,[2],≥ 0.01 ppm
